# Values of other authors in article PMC2757550 (Bioconjugate chemistry, 2009).
# System: mouse vas deferens preparation
substance,measurement,value
Dmt-Tic-Glu-NH(CH2)5NH-fluorescein,removal from preparation by extensive washing (in words),cannot be removed from the mouse vas deferens preparation by extensive washing
